According to ChEMBL document CHEMBL1125971, “A concise synthesis of 12-(3'-hydroxy-n-propyl)-deoxoartemisinin” (Bioorg Med Chem Lett, 1991):
In brackets after ≈: the same amount, converted by molar mass.

Test system: Plasmodium falciparum
Test: In vitro antimalarial activity against Plasmodium falciparum
Format: functional, organism-based

First: C[C@@H]1CCC2[C@@H](C)CCO[C@@H]3O[C@]4(C)CCC1C23OO4 (some centres undefined)
Second: C[C@@H]1CCC2[C@@H](C)CO[C@@H]3O[C@]4(C)CCC1C23OO4 (some centres undefined)
The IC50 of the first is 130-fold higher: 19 ng/mL (≈ 67.4 nM) for the first, 0.15 ng/mL (≈ 0.559 nM) for the second.

Compared with `C[C@@H]1CCC2[C@@H](C)C(=O)O[C@@H]3O[C@]4(C)CCC1C23OO4` (some centres undefined), `C[C@@H]1CCC2[C@@H](C)[C@H](CCCO)O[C@@H]3O[C@]4(C)CCC1C23OO4` (some centres undefined) is 5.3-fold lower in IC50: 1.21 ng/mL (≈ 4.29 nM) for the first, 0.23 ng/mL (≈ 0.705 nM) for the second.
